In this test the target is full-length human LSD1 (Homo sapiens (Human), UniProt O60341). Kind of test: In vitro enzyme inhibition assay LSD-1 (TR-FRET). In kind it is biochemical. Conditions: H3K4me1-biotin peptide. How it is done:
This assay determines the ability of a test compound to inhibit LSD1 demethylase activity.
The enzymatic assay of LSD1 activity is based on Time Resolved-Fluorescence Resonance Energy Transfer (TR-FRET) detection.
The ability of the compounds disclosed herein to inhibit LSD1 activity was quantified and the respective IC50 value was determined.

Some results are limits rather than exact numbers.

As a reminder, the IC50 is the concentration at which inhibition is half-maximal. Low readings indicate higher potency, high ones lower potency. `COc1ccc(-c2c(-c3ccc(C#N)c(F)c3)nc(N3CCC4(CCNC4)CC3)n(C)c2=O)cc1F` [Example 22, 4-[2-(2,8-diaza-spiro[4.5]dec-8-yl)-5-(3-fluoro-4-methoxy-phenyl)-1-methyl-6-oxo-1,6-dihydro-pyrimidin-4-yl]-2-fluoro-benzonitrile] came in with a half-inhibitory concentration (IC50) of less than 0.1 µM.
For the compound `COc1ccc(-c2c(-c3ccc(C#N)c(F)c3)nc(N3CCC(N)CC3)n(CC(N)=O)c2=O)cc1` [Example 16, 2-[2-(4-amino-piperidin-1-yl)-4-(4-cyano-3-fluoro-phenyl)-5-(4-methoxy-phenyl)-6-oxo-6H-pyrimidin-1-yl]-acetamide], the IC50 was less than 0.1 µM.
The figure for `Cn1c(N2CCC(N)CC2)nc(-c2ccc(C#N)c(F)c2)c(-c2cnn(CC(F)(F)F)c2)c1=O` [Example 34, 4-{2-(4-amino-piperidin-1-yl)-1-methyl-6-oxo-5-[1-(2,2,2-trifluoro-ethyl)-1H-pyrazol-4-yl]-1,6-dihydro-pyrimidin-4-yl}-2-fluoro-benzonitrile] is less than 0.1 µM; for `CN(C)c1ccc(-c2c(-c3ccc(C#N)c(F)c3)nc(N3CCC(N)CC3)n(C)c2=O)cn1` [Example 57, 4-[2-(4-amino-piperidin-1-yl)-5-(6-dimethylamino-pyridin-3-yl)-1-methyl-6-oxo-1,6-dihydro-pyrimidin-4-yl]-2-fluoro-benzonitrile] it is less than 0.1 µM; for `Cn1cc2cc(-c3c(-c4ccc(C#N)c(F)c4)nc(N4CCCNCC4)n(C)c3=O)ccc2n1` [Example 66, 4-[2-[1,4]diazepan-1-yl-1-methyl-5-(2-methyl-2H-indazol-5-yl)-6-oxo-1,6-dihydro-pyrimidin-4-yl]-2-fluoro-benzonitrile] it is less than 0.1 µM.
The result for `Cn1c(N2CCC(N)CC2)nc(-c2ccc(C#N)c(F)c2)c(-c2ccc(CO)cc2)c1=O` [Example 100, 4-[2-(4-aminopiperidin-1-yl)-5-[4-(hydroxymethyl)phenyl]-1-methyl-6-oxopyrimidin-4-yl]-2-fluorobenzonitrile] reads less than 0.1 µM; that for `CCc1ccc(-c2c(-c3ccc(C#N)cc3)nc(N3CCC(N)CC3)n(C)c2=O)cn1` [Example 10, 4-[2-(4-amino-piperidin-1-yl)-5-(6-ethyl-pyridin-3-yl)-1-methyl-6-oxo-1,6-dihydro-pyrimidin-4-yl]-benzonitrile], less than 0.1 µM.
Turning to `COCc1ccc(-c2c(-c3ccc(C#N)c(F)c3)nc(N3CCC(N)CC3)n(C)c2=O)cc1` [Example 107, 4-[2-(4-aminopiperidin-1-yl)-5-[4-(methoxymethyl)phenyl]-1-methyl-6-oxopyrimidin-4-yl]-2-fluorobenzonitrile], the IC50 was less than 0.1 µM.
Regarding `COc1ccc(-c2c(-c3ccc(C#N)c(F)c3)nc(N(C)C[C@H]3CCNC3)n(C)c2=O)cc1` [Example 54, 2-fluoro-4-[5-(4-methoxy-phenyl)-1-methyl-2-(methyl-(3S)-pyrrolidin-3-ylmethyl-amino)-6-oxo-1,6-dihydro-pyrimidin-4-yl]-benzonitrile], the IC50 was less than 0.1 µM.
The figure for `Cn1c(N2CCC(N)CC2)nc(-c2ccc(C#N)c(F)c2)c(-c2cccc(F)c2)c1=O` [Example 102, 4-[2-(4-aminopiperidin-1-yl)-5-(3-fluorophenyl)-1-methyl-6-oxopyrimidin-4-yl]-2-fluorobenzonitrile] is less than 0.1 µM; for `COc1ccc(-c2c(-c3ccc(C#N)c(F)c3)nc(N3CCCNCC3)n(C)c2=O)cc1F` [Example 46, 4-[2-[1,4]diazepan-1-yl-5-(3-fluoro-4-methoxy-phenyl)-1-methyl-6-oxo-1,6-dihydro-pyrimidin-4-yl]-2-fluoro-benzonitrile] it is less than 0.1 µM; for `COc1ccc(-c2c(-c3ccc(C#N)c(F)c3)nc(N3CC[C@H](N)C3)n(C)c2=O)cc1F` [Example 29, 4-[2-((3S)-3-amino-pyrrolidin-1-yl)-5-(3-fluoro-4-methoxy-phenyl)-1-methyl-6-oxo-1,6-dihydro-pyrimidin-4-yl]-2-fluoro-benzonitrile] it is less than 0.1 µM.
The figure for `CCOc1ccc(-c2c(-c3ccc(C#N)c(F)c3)nc(N3CCC(N)CC3)n(C)c2=O)cc1` [Example 95, 4-[2-(4-aminopiperidin-1-yl)-5-(4-ethoxyphenyl)-1-methyl-6-oxopyrimidin-4-yl]-2-fluorobenzonitrile] is less than 0.1 µM; for `Cn1c(N2CCC(N)CC2)nc(-c2ccc(C#N)c(F)c2)c(-c2ccc(CCO)cc2)c1=O` [Example 99, 4-[2-(4-aminopiperidin-1-yl)-5-[4-(2-hydroxyethyl)phenyl]-1-methyl-6-oxopyrimidin-4-yl]-2-fluorobenzonitrile] it is less than 0.1 µM.
The result for `CN(C)c1ccc(-c2c(-c3ccc(C#N)c(F)c3)nc(N3CCCNCC3)n(C)c2=O)cn1` [Example 63, 4-[2-[1,4]diazepan-1-yl-5-(6-dimethylamino-pyridin-3-yl)-1-methyl-6-oxo-1,6-dihydro-pyrimidin-4-yl]-2-fluoro-benzonitrile] reads less than 0.1 µM; that for `COc1ccc(-c2c(-c3ccc(C#N)c(F)c3)nc(N3CCC[C@H](N)C3)n(C)c2=O)cc1` [Example 31, 4-[2-((3S)-3-amino-piperidin-1-yl)-5-(4-methoxy-phenyl)-1-methyl-6-oxo-1,6-dihydro-pyrimidin-4-yl]-2-fluoro-benzonitrile], less than 0.1 µM; that for `COc1ccc(-c2c(-c3ccc(C#N)c(F)c3)nc(N3CCC[C@H](N)C3)n(C)c2=O)cc1F` [Example 28, 4-[2-((3S)-3-amino-piperidin-1-yl)-5-(3-fluoro-4-methoxy-phenyl)-1-methyl-6-oxo-1,6-dihydro-pyrimidin-4-yl]-2-fluoro-benzonitrile], less than 0.1 µM.
Turning to `COc1ccc(-c2c(-c3ccc(C#N)c(F)c3)nc(N3CCC(N)CC3)[nH]c2=O)cc1` [Example 122, 4-[2-(4-amino-piperidin-1-yl)-5-(4-methoxy-phenyl)-6-oxo-1,6-dihydro-pyrimidin-4-yl]-2-fluoro-benzonitrile], the 50% inhibitory concentration (IC50) is less than 0.1 µM.
Take `COc1ccc(-c2c(-c3ccc(Cl)c(F)c3)nc(N3CCC(N)CC3)n(C)c2=O)cc1` [Example 111, 2-(4-amino-piperidin-1-yl)-6-(4-chloro-3-fluoro-phenyl)-5-(4-methoxy-phenyl)-3-methyl-3H-pyrimidin-4-one]: the IC50 lay in the range of 0.1 to 1 µM.
The result for `CN(C)c1ncc(-c2c(-c3ccc(C#N)c(F)c3)nc(N3CCC(N)CC3)n(C)c2=O)cn1` [Example 49, 4-[2-(4-amino-piperidin-1-yl)-2′-dimethylamino-1-methyl-6-oxo-1,6-dihydro-[5,5′]bipyrimidinyl-4-yl]-2-fluoro-benzonitrile] reads less than 0.1 µM; that for `Cn1c(N2CCC(N)CC2)nc(-c2ccc(C#N)c(F)c2)c(-c2ccc3cn[nH]c3c2)c1=O` [Example 77, 4-[2-(4-amino-piperidin-1-yl)-5-(1H-indazol-6-yl)-1-methyl-6-oxo-1,6-dihydro-pyrimidin-4-yl]-2-fluoro-benzonitrile], less than 0.1 µM; that for `Cn1c(N2CCC(N)CC2)nc(-c2ccc(C#N)c(F)c2)c(-c2ccc(Cl)cc2)c1=O` [Example 106, 4-[2-(4-aminopiperidin-1-yl)-5-(4-chlorophenyl)-1-methyl-6-oxopyrimidin-4-yl]-2-fluorobenzonitrile], less than 0.1 µM.
The result for `CNc1ccc(-c2c(-c3ccc(C#N)c(F)c3)nc(N3CCC(N)CC3)n(C)c2=O)cc1F` [Example 91, 4-[2-(4-aminopiperidin-1-yl)-5-[3-fluoro-4-(methylamino)phenyl]-1-methyl-6-oxopyrimidin-4-yl]-2-fluorobenzonitrile] reads less than 0.1 µM; that for `Cc1ccc(-c2c(-c3ccc(C#N)cc3)nc(N3CCC(N)CC3)n(C)c2=O)cn1` [Example 4, 4-[2-(4-amino-piperidin-1-yl)-1-methyl-5-(6-methyl-pyridin-3-yl)-6-oxo-1,6-dihydro-pyrimidin-4-yl]-benzonitrile], less than 0.1 µM; that for `COc1ccc(-c2c(-c3ccc(C#N)c(F)c3)nc(N3CC(N)C3)n(C)c2=O)cc1` [Example 64, 4-[2-(3-amino-azetidin-1-yl)-5-(4-methoxy-phenyl)-1-methyl-6-oxo-1,6-dihydro-pyrimidin-4-yl]-2-fluoro-benzonitrile], less than 0.1 µM.
The result for `Cn1c(N2CCC(N)CC2)nc(-c2ccc(C#N)c(F)c2)c(-c2ccc3[nH]ccc3c2)c1=O` [Example 73, 4-[2-(4-amino-piperidin-1-yl)-5-(1H-indol-5-yl)-1-methyl-6-oxo-1,6-dihydro-pyrimidin-4-yl]-2-fluoro-benzonitrile] reads less than 0.1 µM; that for `COc1ccc(-c2c(-c3ccc(C#N)c(F)c3)nc(N3CCNCC3)n(C)c2=O)cc1F` [Example 47, 2-fluoro-4-[5-(3-fluoro-4-methoxy-phenyl)-1-methyl-6-oxo-2-piperazin-1-yl-1,6-dihydro-pyrimidin-4-yl]-benzonitrile], less than 0.1 µM; that for `Cn1c(N2CCC(N)CC2)nc(-c2ccc(C#N)c(F)c2)c(-c2ccc(N3CCCC3)nc2)c1=O` [Example 60, 4-[2-(4-amino-piperidin-1-yl)-1-methyl-6-oxo-5-(6-pyrrolidin-1-yl-pyridin-3-yl)-1,6-dihydro-pyrimidin-4-yl]-2-fluoro-benzonitrile], less than 0.1 µM.
Compound `COc1c(F)cc(-c2c(-c3ccc(C#N)cc3)nc(N3CCC(N)CC3)n(C)c2=O)cc1F` [Example 38, 4-[2-(4-aminopiperidyl)-5-(3,5-difluoro-4-methoxyphenyl)-1-methyl-6-oxohydropyrimidin-4-yl]benzenecarbonitrile] registered an IC50 of less than 0.1 µM.
Compound `COc1ccc(-c2c(-c3ccc(C#N)c(F)c3)nc(N3CCCNCC3)n(C)c2=O)cn1` [Example 61, 4-[2-[1,4]diazepan-1-yl-5-(6-methoxy-pyridin-3-yl)-1-methyl-6-oxo-1,6-dihydro-pyrimidin-4-yl]-2-fluoro-benzonitrile] displayed an IC50 of less than 0.1 µM.
The figure for `Cn1cc2cc(-c3c(-c4ccc(C#N)c(F)c4)nc(N4CCC(N)CC4)n(C)c3=O)ccc2n1` [Example 37, 4-[2-(4-aminopiperidyl)-1-methyl-5-(2-methyl(2H-indazol-5-yl))-6-oxohydropyrimidin-4-yl]-2-fluorobenzenecarbonitrile] is less than 0.1 µM.

The values are drawn from patent US9573930B2 (Quanticel Pharmaceuticals, Inc., priority 2014, dated 2017).
